The source of these data is US9024041B2, “P38 MAP kinase inhibitors” (Respivert Ltd., priority 2010, dated 2015).

The subject of series [1] is Poly I:C-induced ICAM-1 expression in BEAS2B cells. Briefly: Poly I:C-induced ICAM-1 induction in BEAS2B cells. The series is classed as cell-based. The note with it: Homo sapiens, BEAS-2B, poly I:C 1 μg/mL, 18 hr, read-out: PolyI:C/ICAM1 IC50 BEAS2B. On the procedure:
Cellular Potency as Determined by Poly I:C-Induced ICAM-1 Induction in BEAS2B Cells
Poly I:C (1 μg/mL) (Invivogen Ltd., San Diego, Calif.) was transfected into BEAS2B cells (human bronchial epithelial cells, ATCC) with Oligofectamine (Invitrogen, Carlsbad, Calif.). Cells were pre-incubated with final concentrations of test compounds for 2 hr and the level of ICAM1 expression on the cell surface was determined by cell-based ELISA. At a time point 18 hr after poly I:C transfection, cells were fixed with 4% formaldehyde in PBS and then endogenous peroxidase was quenched by the addition of 0.1% sodium azide and 1% hydrogen peroxide. Cells were washed with wash-buffer (0.1% Tween in PBS: PBS-Tween). and after blocking the wells with 5% milk in PBS-Tween for 1 hr, the cells were incubated with anti-human ICAM-1 antibody (Cell Signaling Technology, Danvers, Mass.) in 1% BSA PBS overnight at 4° C. The cells were washed with PBS-Tween and incubated with the secondary antibody (HRP-conjugated anti-rabbit IgG, Dako Ltd., Glostrup, Denmark). The ICAM-1 signal was detected by adding substrate and reading the absorbance at 450 nm against a reference wavelength of 655 nm using a spectrophotometer. The cells were then washed with PBS-Tween and total cell numbers in each well were determined by reading absorbance at 595 nm after Crystal Violet staining and elution by 1% SDS solution. The measured OD 450-655 readings were corrected for cell number by dividing with the OD595 reading in each well. The inhibition of ICAM-1 expression was calculated at each concentration of test compound by comparison with vehicle control. The 50% inhibitory concentration (IC50) was determined from the resultant concentration-response curve.

Series [2] deals with LPS-induced TNFα release in d-U937 cells. Briefly: LPS-induced TNFα release in d-U937 cells. The series is classed as cell-based. The note with it: Homo sapiens, dU937, 4 h; read-out: LPS/TNFα REC50 d-U937. On the procedure:
(§1) Cellular Potency as Determined by LPS-Induced TNFα/IL-8 Release in d-U937Cells
(§2) U937 cells, a human monocytic cell line, were differentiated to macrophage-type cells by incubation with phorbol myristate acetate (PMA; 100 ng/mL) for 48 to 72 hr. Cells were pre-incubated with final concentrations of test compound for 2 hr and were then stimulated with 0.1 μg/mL of LPS (from E. Coli: O111:B4, Sigma) for 4 hr. The supernatant was collected for determination of TNFα and IL-8 concentrations by sandwich ELISA (Duo-set, R&D systems). […] The relative 50% effective concentration (REC50) was determined from the resultant concentration-response curve. The inhibition of IL-8 production was calculated at each concentration of test compound by comparison with vehicle control. The 50% inhibitory concentration (IC50) was determined from the resultant concentration-response curve.

Series [3] has as its system Differentiated U937 cells. In words: MTT assay: cell viability on exposure to test compounds. It is filed as cell-based, human. The note with it: percentage loss of cell viability vs vehicle; for MTT Assay (Viability) 4 h d-U937: 5% FCS; for MTT Assay (Viability) 24 h d-U937: 10% FCS. On the procedure: MTT Assay: Determination of Cell Viability on Exposure to Test Compounds
Differentiated U937 cells were pre-incubated with each test compound under two protocols: the first for 4 hr in 5% FCS and the second in 10% FCS for 24 h. The supernatant was replaced with 200 μL of new media and 10 μL of MTT stock solution (5 mg/mL) was added to each well. After incubation for 1 hr the media were removed, 200 μL of DMSO was added to each well and the plates were shaken lightly for 1 hr prior to reading the absorbance at 550 nm. The percentage loss of cell viability was calculated for each well relative to vehicle (0.5% DMSO) treatment. Consequently an apparent increase in cell viability for drug treatment relative to vehicle is tabulated as a negative percentage.
In general terms: Tetrazolium dyes change colour on reduction, which living cells bring about.

The subject of series [4] is LPS-induced TNFα release in THP-1 cells. In words: LPS-induced TNFα release in THP-1 cells. It is filed as cell-based. The note with it: Homo sapiens, 3 μg/mL LPS, 4 hr. The method, then:
Cellular Potency as Determined by LPS-Induced TNFα Release in THP-1 Cells
THP-1 cells, a human monocytic cell line, were stimulated with 3 μg/mL of LPS (from E. Coli; 0111:B4, Sigma) for 4 hr and the supernatant collected for determination of the TNFα concentration by sandwich ELISA (Duo-set, R&D systems). The inhibition of TNFα production was calculated at each concentration by comparison with vehicle control. The 50% inhibitory concentration (IC50) was determined from the resultant concentration-response curve.

Series [5] concerns the target T1, Recombinant, phosphorylated p38 MAPKγ (MAPK12:Invitrogen) (Homo sapiens, UniProt P53778).
T1 construct: purchased Invitrogen
T1 sequence (P53778 1-367): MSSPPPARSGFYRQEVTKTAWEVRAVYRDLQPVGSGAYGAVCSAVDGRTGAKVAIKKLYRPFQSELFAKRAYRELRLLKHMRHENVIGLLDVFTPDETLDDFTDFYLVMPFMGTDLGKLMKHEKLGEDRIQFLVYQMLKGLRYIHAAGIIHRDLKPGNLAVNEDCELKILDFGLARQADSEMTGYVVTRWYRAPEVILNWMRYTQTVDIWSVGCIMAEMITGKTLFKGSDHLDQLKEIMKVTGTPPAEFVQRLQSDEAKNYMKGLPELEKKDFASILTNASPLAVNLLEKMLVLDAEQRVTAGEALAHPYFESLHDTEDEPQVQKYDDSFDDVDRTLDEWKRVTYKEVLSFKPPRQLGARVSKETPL
Briefly: p38 MAPKγ enzyme inhibition assay (FRET, Z-LYTE). It is filed as biochemical. The note with it: 2 hr pre-incubation, ATP 100 μM; read-out: Enzyme Inhibition IC50 p38γ.
Protocol: The enzyme inhibitory activities of compounds disclosed herein were determined by fluorescence resonance energy transfer (FRET) using synthetic peptides labelled with both donor and acceptor fluorophores (Z-LYTE, Invitrogen Ltd., Paisley, UK). Recombinant, phosphorylated p38 MAPKγ (MAPK12:Invitrogen) was diluted in HEPES buffer, mixed with the test compound at the desired final concentrations and incubated for 2 hr at RT. The FRET peptide (2 μM) and ATP (100 μM) were added to the enzyme/compound mixture and incubated for 1 hr. Development reagent (protease) was added for 1 hr prior to detection in a fluorescence microplate reader (Varioskan® Flash, ThermoFisher Scientific). The site-specific protease cleaves non-phosphorylated peptide only and eliminates the FRET signal. Phosphorylation levels of each reaction were calculated using the ratio of coumarin emission (donor) over fluorescein emission (acceptor) for which high ratios indicate high phosphorylation and low ratios indicate low phosphorylation levels.

The test system of series [6] is LPS-induced IL-8 release in d-U937 cells. Briefly: LPS-induced IL-8 release in d-U937 cells. It is filed as cell-based. The note with it: Homo sapiens, dU937, 0.1 μg/mL LPS, 4 hr. The method, then: as §1, §2
Series [7] concerns the target T2, p38 MAPKα isoform (MAPK14: Invitrogen) (Homo sapiens, UniProt Q16539).
T2 construct: purchased Invitrogen
Briefly: p38 MAPKα enzyme inhibition assay (FRET, Z-LYTE, via MAPKAP-K2 activation). The series is classed as biochemical. The note with it: 2 hr pre-incubation, ATP 10.0 μM; read-out: Enzyme Inhibition IC50 p38α.

Marks after values point to notes of the source that are not given here.

T2 sequence (Q16539 whole entry, canonical isoform): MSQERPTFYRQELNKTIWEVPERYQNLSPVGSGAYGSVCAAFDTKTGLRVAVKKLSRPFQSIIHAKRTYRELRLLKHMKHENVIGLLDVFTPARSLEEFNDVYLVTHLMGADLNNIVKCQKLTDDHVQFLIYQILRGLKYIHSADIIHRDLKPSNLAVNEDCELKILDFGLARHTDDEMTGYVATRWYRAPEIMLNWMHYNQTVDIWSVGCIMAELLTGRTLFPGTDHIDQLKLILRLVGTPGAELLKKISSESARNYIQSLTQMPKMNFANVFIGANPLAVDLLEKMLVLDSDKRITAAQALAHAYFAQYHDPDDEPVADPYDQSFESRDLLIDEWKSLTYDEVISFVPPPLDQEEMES

As for `COCC(=O)Nc1cc(C(=O)c2ccc(NC(=O)Nc3cc(C(C)(C)C)nn3-c3ccc(C)cc3)c3ccccc23)ccn1` [Example 66, N-(4-(4-(3-(3-tert-butyl-1-p-tolyl-1H-pyrazol-5-yl)ureido)-1-naphthoyl)pyridin-2-yl)-2-methoxyacetamide], the IC50 in series [1] came to 48.4 nM; in series [4], 2.9 nM; in series [5] it was 7360 nM; in series [6], 171 nM; in series [7], 7.3 nM. Besides, in series [2], the EC50 worked out at 1 nM. In addition, the “MTT Assay (Viability) 4 h d-U937” value in series [3] (10 μg/mL) is reported as 11.0^b %. Also, the “MTT Assay (Viability) 24 h d-U937” value in series [3] (10 μg/mL) is 71.1^b %.

Turning to `COc1ccc(-n2nc(C(C)(C)C)cc2NC(=O)Nc2ccc(Oc3ccnc(NC(=O)CO)c3)c3ccccc23)cc1` [Example 4, N-(4-(4-(3-(3-tert-Butyl-1-(4-methoxyphenyl)-1H-pyrazol-5-yl)ureido)naphthalen-1-yloxy)pyridin-2-yl)-2-hydroxyacetamide], the IC50 in series [1] amounted to 4 nM; in series [4], 1.3 nM; in series [5], 150 nM; in series [6], 3 nM; in series [7] it was 4.6 nM. Besides, the EC50 in series [2] turned out to be 0.04 nM. Moreover, the “MTT Assay (Viability) 4 h d-U937” value in series [3] (1 μg/mL) is listed as −3.9%. Moreover, in series [3] (1 μg/mL), the “MTT Assay (Viability) 24 h d-U937” value is reported as −38.2%.

For the compound `CCNC(=O)Nc1cc(Cc2ccc(NC(=O)Nc3cc(C(C)(C)C)nn3-c3ccc(C)cc3)c3ccccc23)ccn1` [Example 23, 1-(3-(tert-Butyl)-1-(p-tolyl)-1H-pyrazol-5-yl)-3-(4-((2-(3-ethylureido)pyridin-4-yl)methyl)naphthalen-1-yl)urea], the IC50 in series [1] came out at 20.3 nM; in series [4] it was 12.4 nM; in series [5] it was 3010 nM; in series [6], 21.4 nM; in series [7], 20.3 nM. In addition, the EC50 in series [2] worked out at 3.4 nM. Moreover, in series [3] (10 μg/mL), the “MTT Assay (Viability) 4 h d-U937” value is given as 15.2^b %. The “MTT Assay (Viability) 24 h d-U937” value in series [3] (10 μg/mL) is −1.7^b %.

Take `COCCOCC(=O)Nc1cc(C(=O)c2ccc(NC(=O)Nc3cc(C(C)(C)C)nn3-c3ccc(C)cc3)c3ccccc23)ccn1` [Example 22, N-(4-(4-(3-(3-(tert-Butyl)-1-(p-tolyl)-1H-pyrazol-5-yl)ureido)-1-naphthoyl)pyridin-2-yl)-2-(2-methoxyethoxy)acetamide]: the IC50 is 572 nM in series [1]; 53.6 nM in series [4]; 7030 nM in series [5]; 651 nM in series [6]; 14 nM in series [7]. Moreover, in series [2], the EC50 turned out to be 3 nM. For the same compound, the “MTT Assay (Viability) 4 h d-U937” value in series [3] (10 μg/mL) was 21.1^b %. In addition, the “MTT Assay (Viability) 24 h d-U937” value in series [3] (10 μg/mL) is 80.8^b %.

In the case of `CN(C)C(=O)Nc1cc(Oc2ccc(NC(=O)Nc3cc(C(C)(C)C)nn3-c3ccc(S(C)(=O)=O)cc3)c3ccccc23)ccn1` [Example 15, 3-(4-(4-(3-(3-tert-Butyl-1-(4-(methylsulfonyl)phenyl)-1H-pyrazol-5-yl)ureido)naphthalen-1-yloxy)pyridin-2-yl)-1,1-dimethylurea], the IC50 in series [1] turned out to be 16.3 nM; in series [4] it was 1.5 nM; in series [5], 81.5 nM; in series [6] it was 2.4 nM; in series [7], 23.6 nM. In series [3] (1 μg/mL), the “MTT Assay (Viability) 4 h d-U937” value is −15.4%. The “MTT Assay (Viability) 24 h d-U937” value in series [3] (1 μg/mL) is −66.2%.

Take `COCC(=O)Nc1cc(Oc2ccc(NC(=O)Nc3cc(C(C)(C)C)nn3-c3cccs3)c3ccccc23)ccn1` [Example 56, N-(4-(4-(3-(3-tert-butyl-1-(thiophen-2-yl)-1H-pyrazol-5-yl)ureido)naphthalen-1-yloxy)pyridin-2-yl)-2-methoxyacetamide]: the IC50 in series [1] stood at 13.4 nM; in series [4], 0.6 nM; in series [5], 55 nM; in series [6], 0.5 nM; in series [7], 6.6 nM. Further, the “MTT Assay (Viability) 4 h d-U937” value in series [3] (1 μg/mL) came to 4.8%. In series [3] (1 μg/mL), the “MTT Assay (Viability) 24 h d-U937” value worked out at 43.1%.

As to `COCC(=O)Nc1cc(Oc2ccc(NC(=O)Nc3cc(C(C)(C)C)nn3-c3ccc(CO)c(OC)c3)c3ccccc23)ccn1` [Example 51, N-(4-(4-(3-(3-tert-butyl-1-(4-(hydroxymethyl)-3-methoxyphenyl)-1H-pyrazol-5-yl)ureido)naphthalen-1-yloxy)pyridin-2-yl)-2-methoxy acetamide], the IC50 in series [1] amounted to 2.5 nM; in series [4], 1.6 nM; in series [5] it was 149 nM; in series [6], 38.7 nM; in series [7], 11.9 nM. Further, in series [3] (1 μg/mL), the “MTT Assay (Viability) 4 h d-U937” value was −5.2%. Also, the “MTT Assay (Viability) 24 h d-U937” value in series [3] (1 μg/mL) worked out at 61.0%.

On to `CC(C)(C)c1cc(NC(=O)Nc2ccc(Oc3ccnc(NC(=O)N4CCCC4)c3)c3ccccc23)n(-c2ccc(O)cc2)n1` [Example 35, N-(4-(4-(3-(3-tert-butyl-1-(4-hydroxyphenyl)-1H-pyrazol-5-yl)ureido)naphthalen-1-yloxy)pyridin-2-yl)pyrrolidine-1-carboxamide], for which the IC50 amounted to 2.1 nM in series [1]; 1.6 nM in series [4]; 324 nM in series [5]; 1.9 nM in series [6]; 11.3 nM in series [7]. The “MTT Assay (Viability) 4 h d-U937” value in series [3] (1 μg/mL) is −15.4%. The “MTT Assay (Viability) 24 h d-U937” value in series [3] (1 μg/mL) is on record as −41.3%.

With `COCC(=O)Nc1cc(Oc2ccc(NC(=O)Nc3cc(C4(C)CC4)nn3-c3ccc(C)cc3)c3ccccc23)ccn1` [Example 25, 2-methoxy-N-(4-(4-(3-(3-(1-methylcyclopropyl)-1-p-tolyl-1H-pyrazol-5-yl)ureido)naphthalen-1-yloxy)pyridin-2-yl)acetamide], the IC50 in series [1] amounted to 21.8 nM; in series [4], 0.9 nM; in series [5], 3010 nM; in series [6], 0.7 nM; in series [7], 3.4 nM. Besides, the “MTT Assay (Viability) 4 h d-U937” value in series [3] (1 μg/mL) is recorded as −7.6%. Besides, the “MTT Assay (Viability) 24 h d-U937” value in series [3] (1 μg/mL) worked out at 4.7%.
